Activity calls are given as the source filed them. No cut-off for these calls is given here.
Tests used:
[1] = MRT (0 to t) in rat at 5 mg/kg, iv measured for 1 to 24 hrs by LC-MS analysis; format: ADME, organism-based; details: in vivo, time 1-24 hrs
Uterus = test: Effect on immature Sprague-Dawley rat uterus assessed as reduction in uterine wet weight at 60 mg/kg, po qd for 2 days by H and E staining based analysis; format: functional, organism-based; details: time 2.0 day
[2] = Cmax in rat at 20 mg/kg, po measured for 1 to 24 hrs by LC-MS analysis; format: ADME, organism-based; details: in vivo, time 1-24 hrs
[3] = Toxicity in nude mouse model xenografted with human MCF7 cells assessed as morphological change in heart at 60 mg/kg, po administered daily via gavage for 30 days by H and E staining based analysis; format: organism-based; details: in vivo, 720 h, time 30 day
MCF7 [4] = test: Induction of cell cycle arrest at G0/G1 phase in human MCF7 cells at 10 uM incubated for 24 hrs by PI/RNase staining based flow cytometry (reference value: 53.5 +/- 1.96 %); format: functional
[5] = MRT (0 to infinity) in rat at 20 mg/kg, po measured for 1 to 24 hrs by LC-MS analysis; format: ADME, organism-based; details: in vivo, time 1-24 hrs
[6] = molecular target: T1, Estrogen receptor (Homo sapiens) (UniProt P03372); test: Induction of estrogen receptor degradation in MG-132-treated human MCF7 cells at 10 uM incubated for 4 to 6 hrs by Western blot analysis; format: cell-based; details: time 4-6 hrs
T1 sequence (whole entry): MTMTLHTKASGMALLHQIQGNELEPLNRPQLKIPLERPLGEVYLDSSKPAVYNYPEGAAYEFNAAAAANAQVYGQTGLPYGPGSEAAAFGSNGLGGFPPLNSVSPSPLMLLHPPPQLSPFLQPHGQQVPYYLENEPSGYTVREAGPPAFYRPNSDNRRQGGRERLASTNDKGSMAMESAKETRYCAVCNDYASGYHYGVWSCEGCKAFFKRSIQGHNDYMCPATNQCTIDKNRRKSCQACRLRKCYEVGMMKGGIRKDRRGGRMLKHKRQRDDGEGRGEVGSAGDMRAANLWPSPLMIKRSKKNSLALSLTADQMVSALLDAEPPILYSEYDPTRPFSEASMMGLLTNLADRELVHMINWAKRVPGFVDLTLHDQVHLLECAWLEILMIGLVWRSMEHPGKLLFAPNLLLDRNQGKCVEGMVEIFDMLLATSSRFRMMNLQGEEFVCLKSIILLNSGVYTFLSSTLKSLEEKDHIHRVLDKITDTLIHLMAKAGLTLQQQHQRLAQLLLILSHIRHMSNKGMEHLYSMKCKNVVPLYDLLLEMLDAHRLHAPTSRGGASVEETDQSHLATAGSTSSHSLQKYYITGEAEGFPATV

[7] = molecular target: T1, Estrogen receptor (Homo sapiens); test: Induction of estrogen receptor degradation in human MCF7 cells incubated for 24 hrs by Western blot analysis; format: cell-based; details: dose 0.001-10 µM
Ishikawa = test: Antiproliferative activity against human Ishikawa cells at 20 uM incubated for 3 days by MTT assay relative to control; format: functional; details: 72 h, time 3 day
[8] = AUC (0 to infinity) in rat at 5 mg/kg, iv measured for 1 to 24 hrs by LC-MS analysis; format: ADME, organism-based; details: in vivo, time 1-24 hrs
[9] = Oral bioavailability in rat at 20 mg/kg measured for 1 to 24 hrs by LC-MS analysis; format: ADME, organism-based; details: in vivo, time 1-24 hrs
[10] = Apparent volume of distribution in rat at 5 mg/kg, iv measured for 1 to 24 hrs by LC-MS analysis; format: ADME, organism-based; details: in vivo, time 1-24 hrs, read-out: Vz
MCF7 [11] = test: Induction of immunogenic cell death in human MCF7 cells assessed as ATP release […] at 10 uM; format: functional, cell-based
MCF7 [12] = test: Induction of immunogenic cell death in human MCF7 cells assessed as HMGB1 release from nucleus at 10 uM by fluorescence microscopy; format: functional, cell-based
[13] = molecular target: T1, Estrogen receptor (Homo sapiens); test: Induction of estrogen receptor degradation in estradiol-stimulated human MCF7 cells assessed as decrease in TFF1 mRNA level incubated for 24 hrs by RT-qPCR analysis; format: cell-based; details: dose 1-10 µM
MCF7 [14] = test: Induction of immunogenic cell death in human MCF7 cells assessed as HMGB1 release from nucleus at 10 uM by Western blot analysis; format: functional, cell-based
[15] = Cmax in rat at 5 mg/kg, iv measured for 1 to 24 hrs by LC-MS analysis; format: ADME, organism-based; details: in vivo, time 1-24 hrs
MCF7 [16] = test: Induction of ROS production in human MCF7 cells measured after 6 to 24 hrs by flow cytometry; format: functional, cell-based; details: time 6-24 hrs
MCF7 [17] = test: Induction of endoplasmic reticulum stress effect in human MCF7 cells assessed as change in GRP78 level at 10 uM incubated for 3 to 24 hrs by Western blot analysis; format: functional, cell-based; details: time 3-24 hrs
MCF7 [18] = test: Induction of endoplasmic reticulum stress effect in human MCF7 cells assessed as change in calnexin level at 10 uM incubated for 3 to 24 hrs by Western blot analysis; format: functional, cell-based; details: time 3-24 hrs
MCF7 [19] = test: Antitumor activity against human MCF7 cells xenografted in nude mouse model assessed as reduction in ER level at 60 mg/kg, po administered daily via gavage for 30 days in presence of ribociclib by IHC analysis; format: functional, organism-based; details: time 30.0 day
[20] = AUC (0 to t) in rat at 5 mg/kg, iv measured for 1 to 24 hrs by LC-MS analysis; format: ADME, organism-based; details: in vivo, time 1-24 hrs
MCF7 [21] = test: Induction of immunogenic cell death in human MCF7 cells assessed as HMGB1 release from nucleus at 10 uM by FITC staining based flow cytometry; format: functional
[22] = molecular target: T1, Estrogen receptor (Homo sapiens); test: Induction of estrogen receptor degradation in human MCF7 cells expressing ERE-luciferase at 10 uM incubated for 24 hrs by luminescence based analysis; format: cell-based

CCc1ccccc1C(=O)c1cnc2cc(O)ccc2c1Oc1ccc(/C=C/C(=O)O)cc1
MRT last [1]: 7.2 min
Activity (Uterus): inactive
Cmax [2]: 0.501 µg/mL
Activity [3]: Non-Toxic
Activity (MCF7 [4]): 59.7%
MRT inf [5]: 2.66 h
Activity [6]: inactive
Activity [7]: Dose-Dependent Effect
inhibition at 20 µM (Ishikawa): 14%
AUC(0-inf) [8]: 3.05 µg·h/mL
bioavailability [9]: 5.32%
Vd [10]: 2 L/kg
Activity (MCF7 [11]): Active
Activity (MCF7 [12]): Active
Activity [13]: Dose-Dependent Effect
Activity (MCF7 [14]): Active
Cmax [15]: 10.4 µg/mL
Activity (MCF7 [16]): inactive
Activity (MCF7 [17]): Active
Activity (MCF7 [18]): Active
Activity (MCF7 [19]): Active
AUC(0-t) [20]: 3.05 µg·h/mL
Activity (MCF7 [21]): Active
Activity [22]: Active

From ChEMBL document CHEMBL5584239, “Discovery of novel quinoline scaffold selective estrogen receptor degraders (SERDs) for treatment of ER positive breast cancer with enhanced antiproliferative bioactivity through immunogenic cell death (ICD) effects” (Eur J Med Chem, 2024)
